# Patent US10028992B2, “Methods of treating muscular dystrophy” (BOARD OF REGENTS OF THE NEVADA SYSTEM OF HIGHER EDUCATION …, priority 2012, dated 2018)
# System: α7 integrin promoter
# Assay: muscle cell-based assay: α7βgal+/− myoblasts/myotubes, LacZ reporter, β-galactosidase cleavage of FDG
# Parameters: species or system mouse
# Details: Myotubes; for Results in a α7+/− β-galactosidase assay, Myotubes, 0.5 uM: compound at 0.5 uM; for Results in a α7+/− β-galactosidase assay, Myotubes, 1 uM: compound at 1 uM; for Results in a α7+/− β-galactosidase assay, Myotubes, 5 uM: compound at 5 uM; for Results in a α7+/− β-galactosidase assay, Myotubes, 10 uM: compound at 10 uM; for Results in a α7+/− β-galactosidase assay, Myotubes, 20 uM: compound at 20 uM; for Results in a α7+/− β-galactosidase assay, Myotubes, 40 uM: compound at 40 uM
# In short: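 Primary α7βgal+/− mouse myoblasts (LacZ knocked into α7 integrin exon 1, promoter retained), differentiated; promoter activity read as β-galactosidase conversion of non-fluorescent FDG to fluorescein. Hits followed by dose-response, western analysis and myostatin counterscreen.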
SMILES,"Results in a α7+/− β-galactosidase assay, Myotubes, 0.5 uM","Results in a α7+/− β-galactosidase assay, Myotubes, 1 uM","Results in a α7+/− β-galactosidase assay, Myotubes, 5 uM","Results in a α7+/− β-galactosidase assay, Myotubes, 10 uM","Results in a α7+/− β-galactosidase assay, Myotubes, 20 uM","Results in a α7+/− β-galactosidase assay, Myotubes, 40 uM"
CC(C)(C)c1csc(NC(=O)c2cccnc2)n1 [drawing 455],−0.1018,−0.04907,0.01472,0.1276,−0.2798,−0.144
Cc1ccccc1/C=C1\C(=O)Nc2ccc(F)cc21 [drawing 456],0.008769,−0.01895,−0.02208,0.1345,−0.1202,0.009496
Cc1ccc2c(c1)/C(=C/c1ccccc1)C(=O)N2 [drawing 457],−0.1541,−0.09775,−0.09703,0.151,−0.411,−0.4149
COC(=O)c1ccccc1CC(=O)CSc1nc(O)c(-c2ccccc2)c(O)n1 [drawing 458],−0.05289,−0.1068,−0.1993,0.1104,−0.1578,0.03611
Cc1ccc2c(c1)/C(=C/c1ccccc1F)C(=O)N2 [drawing 459],−0.02905,−0.08264,−0.2089,0.1057,−0.3626,−0.3722
CC(=O)Nc1ccc(-n2c(C)nc(=O)c(-c3ccccc3)c2C)cc1 [drawing 460],−0.1626,−0.1764,−0.2443,−0.1679,−0.3617,−0.505
CCc1nc2ccccc2c(C(=O)NCc2ccccc2)c1C [drawing 461],−0.0989,−0.1627,0.438,0.1173,−0.1092,0.1436
CCOC(=O)c1cc(-c2cccs2)nc2c1c(C)nn2-c1ccccn1 [drawing 462],−0.07388,−0.1286,−0.1329,−0.1516,−0.2792,−0.2792
CN1CCN(c2ccccc2/C=C2\C(=O)Nc3ccccc32)CC1 [drawing 463],0.01535,0.02095,−0.163,−0.162,−0.1247,−0.07473
COC(=O)c1cc(S(=O)(=O)NCC2CCN(Cc3ccc(Cl)cc3)CC2)cn1C [drawing 464],−0.00414,−0.05118,−0.09401,−0.08097,−0.09607,−0.07382
COc1ccc(C(=O)Cn2nnc(-c3ccccc3NC(=O)c3ccco3)n2)cc1 [drawing 465],0.1086,0.1215,−0.1502,−0.3147,−0.5196,−0.8196
N#Cc1nc(COc2ccccc2)oc1N1CCCC1 [drawing 466],−0.1447,−0.2423,−0.3897,−0.2892,−0.5781,−0.8948
CCCc1nnc(SCC(=O)NC2CCCC2)n1CCOC [drawing 467],−0.09246,0.01763,−0.3088,0.4536,−0.2024,−0.4694
Nc1cccc(/C=C/C(=O)O)c1 [drawing 468],0.04663,−0.01629,−0.2823,−0.1292,−0.1085,−0.2156
CCCC1C(c2cc(OC)c(OC)c(OC)c2)=Nc2c1c(=O)[nH]c(=O)n2Cc1ccccc1 (stereo not drawn) [drawing 469],−0.09222,−0.1313,−0.484,−0.34,−0.2089,−0.2856
CC(C)(C)c1ccc(C(=O)OCC(=O)Nc2sc3c(c2C#N)CCC3)cc1 [drawing 470],−0.03535,−0.03363,0.4586,−0.1998,−0.05439,−0.05938
CCOc1cc(C)c(S(=O)(=O)N2CCCCC2)cc1C [drawing 471],−0.1603,−0.08287,−0.1415,−0.1282,0.01353,−0.03791
Cc1cc(OCC(=O)NC(C)C)ccc1Cl [drawing 472],−0.02692,−0.04637,−0.3868,−0.4196,−0.2513,−0.2531
Cc1ccsc1CN(C)CC(=O)Cc1ccc([N+](=O)[O-])cc1Cl [drawing 473],−0.05036,−0.06852,−0.2581,−0.2695,−0.1438,−0.2052
O=C1c2ccccc2C(=O)C1(CC(O)O)c1ccccc1 [drawing 474],−0.08689,0.05823,−0.2367,−0.3763,−0.3304,−0.4389
Cc1ccc(Cn2nnc3c(O)nc(C4CCCN(C(=O)c5ccco5)C4)nc32)cc1 (stereo not drawn) [drawing 475],−0.1767,−0.1614,−0.2961,−0.3051,−0.225,−0.2551
Cc1ccc(NS(=O)(=O)c2ccc(-c3ccc(O)nn3)o2)c(C)c1 [drawing 477],−0.04997,0.003075,−0.3008,−0.389,−0.09047,−0.1539
CCCCN1CC(=O)N2Cc3[nH]c4ccccc4c3C[C@H]2C1=O [drawing 478],−0.1229,−0.1432,−0.3665,−0.4899,−0.2121,−0.2272
CCC(CC)C(=O)Nc1c(C(=O)N2CCN(c3ccccc3)CC2)oc2ccccc12 [drawing 479],−0.04763,−0.04983,−0.2904,−0.3853,−0.08708,−0.02043
Cc1nc(/C=C2\C(=O)Nc3ccccc32)c[nH]1 [drawing 480],0.01879,−0.05703,0.093,0.007066,0.01022,−0.04283
